# Measured values as given in paper PMC8535866, “TMEM16A, a Homoharringtonine Receptor, as a Potential Endogenic Target for Lung Cancer Treatment” (International Journal of Molecular Sciences, 2021).
# Where a chain is given by its changes, count along the chain named.
# Experiments:
# [1] = target: T1, TMEM16A (Mus musculus, UniProt Q8BHY3); experiment: whole-cell patch clamp in LA795 cells, Hill fit; assay type: cell-based
# T1 construct: gene Ano1; endogenous TMEM16A in LA795 cells
# T1 sequence (Q8BHY3 1-960): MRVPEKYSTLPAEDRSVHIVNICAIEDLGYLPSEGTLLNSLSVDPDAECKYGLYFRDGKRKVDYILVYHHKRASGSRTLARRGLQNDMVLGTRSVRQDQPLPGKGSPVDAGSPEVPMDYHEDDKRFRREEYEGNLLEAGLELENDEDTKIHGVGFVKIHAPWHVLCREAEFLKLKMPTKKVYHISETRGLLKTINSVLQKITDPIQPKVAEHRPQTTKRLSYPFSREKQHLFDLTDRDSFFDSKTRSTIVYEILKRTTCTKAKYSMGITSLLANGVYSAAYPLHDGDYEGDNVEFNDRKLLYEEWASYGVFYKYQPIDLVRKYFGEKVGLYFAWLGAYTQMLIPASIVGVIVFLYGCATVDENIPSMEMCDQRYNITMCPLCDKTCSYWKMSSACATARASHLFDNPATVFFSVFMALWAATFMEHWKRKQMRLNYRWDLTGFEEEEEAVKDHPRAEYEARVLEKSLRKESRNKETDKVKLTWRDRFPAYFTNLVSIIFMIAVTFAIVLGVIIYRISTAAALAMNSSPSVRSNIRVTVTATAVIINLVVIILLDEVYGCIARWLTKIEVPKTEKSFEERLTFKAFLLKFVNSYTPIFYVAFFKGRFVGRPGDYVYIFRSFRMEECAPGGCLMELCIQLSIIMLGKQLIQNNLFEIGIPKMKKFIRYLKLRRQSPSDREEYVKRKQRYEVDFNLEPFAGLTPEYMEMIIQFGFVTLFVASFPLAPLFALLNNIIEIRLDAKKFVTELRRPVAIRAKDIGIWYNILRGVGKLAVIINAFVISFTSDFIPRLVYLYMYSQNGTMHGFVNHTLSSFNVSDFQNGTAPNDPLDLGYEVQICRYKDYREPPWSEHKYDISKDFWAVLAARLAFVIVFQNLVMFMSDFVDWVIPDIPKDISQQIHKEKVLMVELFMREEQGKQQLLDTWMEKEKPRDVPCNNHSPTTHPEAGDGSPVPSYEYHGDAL
# [2] = target: T2, TMEM16A (Mus musculus, UniProt Q8BHY3, K769A); experiment: whole-cell patch clamp of TMEM16A mutant; assay type: cell-based
# T2 construct: gene Ano1; TMEM16A mutant plasmid
# T2 sequence (Q8BHY3 1-960 K769A): T1 sequence (Q8BHY3 1-960) with K769A
structure (smiles),measurement,setting,value
"COC(=O)C[C@](O)(CCCC(C)(C)O)C(=O)O[C@@H]1C(OC)=C[C@]23CCCN2CCc2cc4c(cc2[C@H]13)OCO4 [HHT, Homoharringtonine]",IC50,[1],11.4 ± 1.68 µM
same,IC50,[2],70.8 ± 24.3 µM
